Values belong to the compound of their own block, whether it stands above or below them.
Tests used:
[1] = Loading efficiency and loading ratio of EGCG by centrifugal ultrafiltration; type: physicochemical; settings: both β-Lg concentrations (0.5% and 1% w/w)
Description: The loading efficiency (the percentage of encapsulated substance out of total material added to the composition) and loading ratio (the ratio between the encapsulated substance and the encapsulation matrix) of EGCG was determined. β-Lg-EGCG nanoparticles solutions, of 2:1 and 8:1 EGCG: β-Lg molar ratios, were prepared at 1% w/w and 0.5% w/w protein solution. The entrapped EGCG in β-Lg nanoparticles was separated from the free EGCG by centrifugal ultrafiltration as described above. The molar loading ratio and the loading efficiency are presented on Table 4.

[2] = target: T1, preheated β-Lg (75° C., 20 min) (Bos taurus, UniProt P02754); test: Intrinsic protein fluorescence quenching: binding of EGCG to preheated β-Lg (Langmuir-based model and modified Stern-Volmer); parameters: species or system bovine; settings: for KSVa ± S.E. (Stern-Volmer quenching constant) / fa ± S.E. (fraction of fluorophore-sites accessible): preheated 20 min 75° C.; for Ka ± S.E.: protein preheated 20 min 75° C. before adding EGCG
T1 construct: Beta-lactoglobulin (β-Lg, 18.4 kDa, 162 amino acids) is the major whey protein in cow milk; purchased
T1 sequence (P02754 17-178): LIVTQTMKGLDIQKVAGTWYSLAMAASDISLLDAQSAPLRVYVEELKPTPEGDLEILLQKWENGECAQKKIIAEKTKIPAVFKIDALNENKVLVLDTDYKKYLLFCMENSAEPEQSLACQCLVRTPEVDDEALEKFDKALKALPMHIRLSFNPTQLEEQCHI
Description: (§1) It is based on exciting at 280 nm the Trp and Tyr residues of bovine β-Lg (bovine β-Lg contains two Trp residues and four Tyr residues) and at 295 nm where only Trp residues are excited though the quantum yield of the Trp itself is smaller than that at 280 nm.
(§2) All fluorescence measurements were performed at room temperature. β-Lg solution (2.09 μM in 1.9 ml of 30 mM PBS, pH 6.86) was heated at 75° C. for 20 minutes, or kept at room temperature. The co-assembly preparation process was done as described above. All measurements were performed after equilibrating the solutions at room temperature for 3 hours. EGCG solutions were 0-400 μM in 0.1 ml of 30 mM PBS, pH 2.44. All samples were prepared in triplicates. The pH of the final solutions was 6.86. β-Lg fluorescence was measured at constant protein concentration of 2 μM and EGCG concentrations of 0-20 μM using a Fluorolog 3-22 spectrofluorometer (Horiba, Jobin Yvon, Longjumeau, France) at a Right-Angle mode. Emission spectra were recorded from 290 to 510 nm with an excitation wavelength of 280 nm, and from 305 to 520 nm with an excitation wavelength of 295 nm, employing 5 nm slit widths. The statistical analysis and non-linear curve fitting were performed using Origin 8 (OriginLab, Northampton, USA).
(§3) Trp61 is reportedly quenched in the native state due to proximity to the Cys66-Cys160 disulfide bond, while Trp 19 is located in a non-polar environment within the cavity of the β-barrel structure, and is responsible for most of the Trp (and the protein) fluorescence. A small shift in the maximal emission wavelength of the protein occurred upon heating and was more clearly observed at the excitation wavelength attributed to Trp alone (295 nm). As only small shifts in the maximal wavelength occurred, all analyses were performed at emission of 343 nm for both excitation wavelengths. When studying the binding of EGCG to β-LG by fluorescence, it is important to keep in mind that EGCG, and not only β-LG, absorbs energy, both at the protein's excitation and, to a lower extent, at the emission wavelengths. Consequently, an inner filtering effect occurs, which intensifies with increasing EGCG concentration, reducing the amount of available energy to excite the protein' s fluorescent groups and absorbing some of the emitted energy too. To overcome this effect, the emission at 343 nm was corrected according to Beer-Lambert's law, using equation 1:
(§4) F=Fu·10^QL(ε^λex^+ε^λem^) (Equation 1)
(§5) where Fu is the measured, uncorrected emission intensity, ελex and ελem—the molar extinction coefficients of EGCG at the excitation and emission wavelengths respectively (measured spectrophotometrically, in the same buffer), Q is the quencher (EGCG) concentration in the cell and L is the path length assumed to be 0.5 cm each for the excitation and emission.
(§6) The analysis for determination of the binding constants was performed using a Langmuir-based model, assuming one affinity-class of binding sites, as described by equation (2): […]
(§7) where F and F0 are the fluorescence intensities of the protein solution in the presence and in the absence of the ligand, respectively; F∞ is the fluorescence when the protein is saturated with the ligand and L0 is the total ligand concentration. The decrease in the fluorescence in the presence of different EGCG concentrations was recorded, and the association constant (Ka) as well as the value for maximum fluorescence difference (ΔFmax=F0−F∞) were calculated by non-linear curve fitting to equation 2 (FIG. 5). The parameters for the fitting were based on the quenching of Tyr and Trp fluorescence at pH 6.87, for β-Lg concentration of 2 μM.
(§8) Fluorescence quenching is often described by the Stern-Volmer equation (3): […]
(§9) where F0 and F are the fluorescence intensities before and after the addition of the quencher, respectively, KSV is the Stern-Volmer quenching constant and [Q] is the concentration of the quencher. […]

native β-Lg = target: T2, native β-Lg (Bos taurus, UniProt P02754); test: Intrinsic protein fluorescence quenching: binding of EGCG to native β-Lg (Langmuir-based model and modified Stern-Volmer); parameters: species or system bovine; settings: without preheating (RT)
T2 construct: Beta-lactoglobulin (β-Lg, 18.4 kDa, 162 amino acids) is the major whey protein in cow milk; purchased
T2 sequence (P02754 17-178): T1 sequence (P02754 17-178)
Description: as §1, §2, §3, §4, §5, §6, §7, §8, §9

[3] = Protection against EGCG oxidation: absorbance at 425 nm over time; type: physicochemical
Description: Aliquots of 2.5 ml EGCG solution were transferred to 1 cm path length spectrophotometer cuvettes and covered with parafilm to prevent evaporation. […] Solutions of 0.52 mM (0.95%) protein at a 2:1 molar ratio (EGCG:protein) and pH 6.85 were compared to pure EGCG solutions. The protein was preheated at 2 temperatures (75° C. and 85° C.) for 20 minutes or kept at room temperature, to compare the protection provided by the partially denatured protein to that of the native protein. The reason for testing these two temperatures was that according to the literature, at about this pH, between 65-75° C. small proteins oligomers are formed, while between 75-85° C. some aggregation of the oligomers occurs. […] Appropriate controls of β-Lg without EGCG and EGCG without β-Lg at the respective concentrations and pH were performed. After preparation, the samples were placed in 1 cm path length spectrophotometer cuvettes and covered with parafilm. […]

[4] = sodium phosphate buffer (pH 7.4); 3 hr; cited from earlier work
[5] = Particle size distribution by dynamic light scattering (DLS); type: physicochemical
Description: Dynamic light scattering was used to evaluate size distribution of the nanocomplexes formed, and that of the pure protein. To produce particles containing the EGCG:β-Lg molar ratios 2:1, 4:1, 6:1, 8:1 and 10:1, two experiments were performed: • (1) β-Lg solution (0.54 mM, in 0.9 ml of 30 mM PBS, pH 7) was heated to 75° C. for 20 minutes, and then EGCG solutions (1.96 mM-10.25 mM, in 0.48 ml of 5 mM PBS, pH 2.5) were added. […] The final EGCG concentrations were 0.87 mM-4.36 mM (0.04%-0.2%), the final β-Lg concentration was 0.43 mM (0.8%) and the pH of the final solution was 6.88.
After polyphenol addition, samples were vortexed for 20 seconds and allowed to cool to room temperature before measurement.
Particle size distribution was studied by a dynamic light scattering (DLS) analyzer (NICOMP™ 380, Particle Sizing Systems Inc., Santa Barbara, Calif., USA) equipped with an Avalanche Photo Diode (APD) detector, used at a fixed angle of 90°. The 90 mW laser wavelength was 658 nm. Mono- bi- or tri-modal distributions were calculated from the scattered light intensity fluctuations, by cumulants Nicomp™ analysis of the auto correlation function (see supplementary information in (Shapira, Assaraf, & Livney, 2009) for a more complete method description). The size range for the Nicomp distribution analysis was set to 1-1,000 nm. Measurements were made in duplicates at 25° C. Table 3 and FIG. 7 show an increase in particle size with increasing EGCG concentration indicating the formation of preheated complexes/nanoparticles (75° C., 20 min before EGCG addition). The molar ratios of β-Lg to EGCG presented in FIG. 7 are: 1:0 (straight line), 1:2 (dotted line), 1:4 (broken line), 1:6 (bold line/dot/line; ? ), 1:8 (fine line/dot/line; ? ) and 1:10 (line/2 dots; ? ).
As detailed above, EGCG-β-Lg nanoparticles at neutral pH are smaller than 50 nm. In order to determine whether the addition of EGCG to the preheated β-Lg causes, in addition to a slight increase in size, a change in colloidal stability, different EGCG concentration solutions were added to the pre-heated β-Lg to create nano-complexes comprised of β-Lg:EGCG at molar ratios in the range of 1:0 to 1:8, while the β-Lg concentration remains constant at a neutral pH (6.8).
The size distribution of the nano-particles solution seemed to consist of two fractions. The first fraction included the small nano-particles in the range of 2-3 nm in diameter and the second fraction included nano-particles of about 15 nm. Since the size of the protein molecule is around 2 nm, it would be reasonable to assume that the smaller-size fraction represents unbound protein molecules or protein molecules with a few bound EGCG molecules, while the larger-size fraction represents complexes comprising several protein molecules, and probably also several EGCG molecules. […] It was important to see whether the increase in the fraction of the larger sized complexes causes a decrease in colloidal stability. Therefore the predicted stability of the same complexes was studied by measuring the electrophoretic mobility (EM) of the nanocomplexes (FIG. 9B). For uniform and moderate electric fields, a linear relationship usually exists between the steady-state electrophoretic mobility and the zeta potential value (Delgado, et al. (2007) Journal of Colloid and Interface Science, Vol. 309, pages 194-224). The zeta potential is calculated according to the measured electrophoretic mobility using several theoretical models available. The choice of a suitable model is carried out according to the ratio of the particle radius (a) and the Debye length (κ−1) (i.e. a/κ−1=κ*a) which characterize the studied composition. […] In the composition of the invention for the smaller particles (of ˜2-3 nm) the κ*a was approximately 1.5. For the larger complexes of about 15 nm, the κ*a value was approximately 7.5. […]

[6] = β-Lg 0.35 mM (0.65% (w/w) pH 6.56)
[7] = β-Lg 0.43 mM (0.8% (w/w) pH 6.56)

Compound: Cn1c(=O)c2c(ncn2C)n(C)c1=O [caffeine]
binding or entrapment in β-Lg [1]: did not show any binding or entrapment

KSVa ± S.E. (Stern-Volmer quenching constant) ([2]; excitation 280 nm): 3.31 ± 0.7 10^5 M^−1
fa ± S.E. (fraction of fluorophore-sites accessible) ([2]; excitation 280 nm): 0.32 ± 0.05
Ka ± S.E. ([2]; excitation 280 nm): 3.7 ± 0.67 10^5 M^−1
KSVa ± S.E. (Stern-Volmer quenching constant) ([2]; excitation 295 nm): 3.07 ± 1.05 10^5 M^−1
fa ± S.E. (fraction of fluorophore-sites accessible) ([2]; excitation 295 nm): 0.25 ± 0.07
Ka ± S.E. ([2]; excitation 295 nm): 3.3 ± 1.07 10^5 M^−1
Ka (association constant, Langmuir-based model fit) ([2]; pH 6.87, β-Lg 2 μM, FIG. 5 fit): 370000 ± 67000 M⁻¹
ΔFmax*10^6 (maximum fluorescence difference) ([2]; pH 6.87, β-Lg 2 μM, FIG. 5 fit): 3.31±0.17
KSVa ± S.E. (Stern-Volmer quenching constant) (native β-Lg; excitation 280 nm): 1.4 ± 0.7 10^5 M^−1
Ka ± S.E. (native β-Lg; excitation 280 nm): 1.05 ± 0.34 10^5 M^−1
fa ± S.E. (fraction of fluorophore-sites accessible) (native β-Lg; excitation 280 nm): 0.16 ± 0.07
KSVa ± S.E. (Stern-Volmer quenching constant) (native β-Lg; excitation 295 nm): 1.4 ± 0.7 10^5 M^−1
Ka ± S.E. (native β-Lg; excitation 295 nm): 1.9 ± 0.6 10^5 M^−1
fa ± S.E. (fraction of fluorophore-sites accessible) (native β-Lg; excitation 295 nm): 0.15 ± 0.06
increase in the 425 nm absorbance with time ([3]; EGCG solution (0.05%) in pH 2.5 PBS): no increase
EGCG degradation rate (increase in absorbance at 425 nm) ([3]; eight days at room temperature, EGCG 1.09 mM (0.05%), β-Lg 0.52 mM, pH 6.85): fastest increase in the absorbance
Compound: O=C(O[C@@H]1Cc2c(O)cc(O)cc2O[C@@H]1c1cc(O)c(O)c(O)c1)c1cc(O)c(O)c(O)c1 [EGCG, (−)-Epigallocatechin-3-gallate]
degradation rate (absorbance at 425 nm) ([3]; PBS pH 6.8, EGCG 0.05%-0.5%): degradation rate increased with rising EGCG concentration
EGCG lost [4]: 80%

Compound: 1:0: preheated β-lactoglobulin without EGCG (major whey protein in cow milk, 18.4 kDa)
size ([5]; rough summary of Table 3): around 2 nm
d, Peak I (β-Lg) [5, 6]: 4.8 nm
fvw, Peak I (β-Lg) [5, 6]: 99.6%
d, Peak I (β-Lg) [5, 7]: 1.4 nm
d, Peak II (β-Lg-EGCG) [5, 7]: 20.2 nm
fvw, Peak I (β-Lg) [5, 7]: 99.8%
fvw, Peak II (β-Lg-EGCG) [5, 7]: 0.2%

Reference: US20150182472A1, “DENATURED LACTOGLOBULIN AND POLYPHENOL COASSEMBLIES” (TECHNION RESEARCH AND DEVELOPMENT FOUNDTION LTD., priority 2010, published 2015)
